According to ChEMBL document CHEMBL4017513, “Structure-Activity Relationships of Potent, Targeted Covalent Inhibitors That Abolish Both the Transamidation and GTP Binding Activities of Human Tissue Transglutaminase” (J Med Chem, 2017):

Tests used:
[1] = Antimigratory activity in human ECS cells at 20 uM treated for 2 hrs measured after 30 hrs by DAPI staining-based inverted fluorescent microscopy relative vehicle-treated control; format: functional
Cavia porcellus = organism: Cavia porcellus; experiment: Ratio of Kinact to Ki for guinea pig liver TG2
[2] = Inhibition of guinea pig liver TG2 using Z-Gln-Gly/DMPDA as substrate preincubated for 3 mins followed by protein addition; design: species or system Cavia porcellus
[3] = target: T1, Protein-glutamine gamma-glutamyltransferase (Homo sapiens) (UniProt P21980); experiment: Ratio of kinact to Ki for human TG2 by colorimetric assay
T1 sequence (whole entry): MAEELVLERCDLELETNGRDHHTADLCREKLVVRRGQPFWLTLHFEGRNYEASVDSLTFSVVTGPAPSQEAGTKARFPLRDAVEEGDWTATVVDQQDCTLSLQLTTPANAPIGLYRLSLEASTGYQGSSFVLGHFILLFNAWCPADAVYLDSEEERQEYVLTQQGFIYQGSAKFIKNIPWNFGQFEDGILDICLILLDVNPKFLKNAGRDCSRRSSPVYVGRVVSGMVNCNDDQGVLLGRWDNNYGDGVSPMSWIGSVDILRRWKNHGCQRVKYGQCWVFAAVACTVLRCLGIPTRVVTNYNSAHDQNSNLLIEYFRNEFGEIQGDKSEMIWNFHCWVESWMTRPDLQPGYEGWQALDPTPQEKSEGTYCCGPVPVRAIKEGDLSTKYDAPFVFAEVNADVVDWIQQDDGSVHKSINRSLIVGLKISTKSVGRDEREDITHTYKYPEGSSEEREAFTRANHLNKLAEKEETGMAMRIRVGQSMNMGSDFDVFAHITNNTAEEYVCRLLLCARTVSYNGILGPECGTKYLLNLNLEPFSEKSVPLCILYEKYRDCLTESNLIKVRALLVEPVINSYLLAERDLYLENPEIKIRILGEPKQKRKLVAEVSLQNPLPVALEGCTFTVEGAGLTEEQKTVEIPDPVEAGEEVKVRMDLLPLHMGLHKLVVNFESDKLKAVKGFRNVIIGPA

[4] = target: T2, Protein-glutamine gamma-glutamyltransferase K (Homo sapiens) (UniProt P22735); experiment: Inactivation of human TG1 using AL5 as substrate by colorimetric assay
T2 sequence (whole entry): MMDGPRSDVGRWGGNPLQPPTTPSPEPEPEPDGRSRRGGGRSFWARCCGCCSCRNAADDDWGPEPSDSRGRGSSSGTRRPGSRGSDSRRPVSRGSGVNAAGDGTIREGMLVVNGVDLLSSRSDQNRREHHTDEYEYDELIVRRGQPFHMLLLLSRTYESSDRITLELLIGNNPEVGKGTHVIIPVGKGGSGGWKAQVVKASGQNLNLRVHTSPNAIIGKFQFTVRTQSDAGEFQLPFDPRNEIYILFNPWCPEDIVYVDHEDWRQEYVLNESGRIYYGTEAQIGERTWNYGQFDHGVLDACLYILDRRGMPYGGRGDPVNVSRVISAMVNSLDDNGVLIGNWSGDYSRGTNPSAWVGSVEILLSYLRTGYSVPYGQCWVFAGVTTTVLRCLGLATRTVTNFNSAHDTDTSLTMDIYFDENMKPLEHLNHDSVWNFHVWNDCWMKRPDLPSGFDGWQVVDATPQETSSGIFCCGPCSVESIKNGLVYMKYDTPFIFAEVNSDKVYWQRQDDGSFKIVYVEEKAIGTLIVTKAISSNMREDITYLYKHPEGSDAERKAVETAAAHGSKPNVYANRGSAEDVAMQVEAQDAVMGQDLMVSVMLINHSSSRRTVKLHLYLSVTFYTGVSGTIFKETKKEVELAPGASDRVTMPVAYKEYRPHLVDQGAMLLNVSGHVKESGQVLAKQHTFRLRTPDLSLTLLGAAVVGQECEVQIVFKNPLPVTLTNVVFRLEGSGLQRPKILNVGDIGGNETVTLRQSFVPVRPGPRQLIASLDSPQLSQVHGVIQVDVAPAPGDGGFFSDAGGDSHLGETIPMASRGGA

[5] = target: T3, Protein-glutamine gamma-glutamyltransferase (Homo sapiens, UniProt P21980); experiment: (§1) Irreversible inhibition of human TG2 using AL5 as substrate by colorimetric assay
T3 sequence (P21980 whole entry): T1 sequence (whole entry)

[6] = target: T1, Protein-glutamine gamma-glutamyltransferase (Homo sapiens); experiment: as §1
[7] = target: T4, Protein-glutamine gamma-glutamyltransferase 6 (Homo sapiens) (UniProt O95932); experiment: Inactivation of human TG6 using AL5 as substrate by colorimetric assay
T4 sequence (whole entry): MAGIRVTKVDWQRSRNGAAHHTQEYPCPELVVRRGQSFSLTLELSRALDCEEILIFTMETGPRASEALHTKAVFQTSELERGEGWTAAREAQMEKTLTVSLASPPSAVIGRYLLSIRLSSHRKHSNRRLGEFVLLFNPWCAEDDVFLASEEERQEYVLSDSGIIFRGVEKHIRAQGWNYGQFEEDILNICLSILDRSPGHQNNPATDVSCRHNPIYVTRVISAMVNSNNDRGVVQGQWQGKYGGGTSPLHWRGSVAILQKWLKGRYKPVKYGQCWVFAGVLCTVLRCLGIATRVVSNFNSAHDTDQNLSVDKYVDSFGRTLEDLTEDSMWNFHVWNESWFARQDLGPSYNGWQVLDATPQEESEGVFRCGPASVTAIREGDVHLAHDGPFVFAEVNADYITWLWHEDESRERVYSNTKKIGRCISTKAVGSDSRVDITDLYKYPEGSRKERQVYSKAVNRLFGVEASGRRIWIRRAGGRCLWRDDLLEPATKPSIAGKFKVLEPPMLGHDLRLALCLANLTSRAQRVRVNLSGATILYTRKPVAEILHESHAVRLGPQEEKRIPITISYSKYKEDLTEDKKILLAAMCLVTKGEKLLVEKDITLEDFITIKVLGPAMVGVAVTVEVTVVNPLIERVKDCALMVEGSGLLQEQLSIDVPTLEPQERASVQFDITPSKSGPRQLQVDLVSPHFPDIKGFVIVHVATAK

Ratio (Cavia porcellus): 1.4 ×10⁴ /M/min
Ki [2]: 29 µM
Ratio [3]: 76.4 ×10³ /M/min
K [4]: 78.9 ×10⁻³ /min
Ki [5]: 33.9 µM
Kinact [6]: 2.6 min⁻¹
K [7]: 6.16 ×10⁻³ /min
Structure (SMILES): C=CC(=O)NCCCC[C@H](NC(=O)OCc1ccccc1)C(=O)NCCOCCOCCNS(=O)(=O)c1cccc2c(N(C)C)cccc12
Activity [1]: 50%
